Data published in patent publication EP0293532A1, “6- or 7-beta-[2-[4-(substituted)-2,3-dioxopiperazin-1-yl) carbonylamino]-(substituted)acetamido]-penicillin and cephalosporin derivatives” (BEECHAM GROUP PLC, priority 1987, dated 1988).
Counter-ions that a name gives are not always drawn.

Experiments:
Test in all cases: MIC by serial dilution in Iso-sensitest agar
Assay type in all cases: cell-based
P.aerginosa 10662 = settings: 10⁴ colony-forming units, overnight at 37°C, lowest concentration to inhibit growth
Experimental: (§1) Minimum Inhibitory Concentration (MIC) values of compounds of the invention against a variety of organisms were determined by serial dilution in Iso-sensitest agar (from Oxoid Ltd. Basingstoke, England). The plates were inoculated with 10⁴ colony-forming units and incubated overnight at 37°C. The MIC values recorded in Table I were the lowest concentration of antibiotic to inhibit growth. Comparative data for Piperacillin (6β-[D-2-[(4-ethyl-2, 3-dioxopiperazin-1-yl)carbonylamino]-2-phenylacetamido] -penicillanic acid, sodium salt) and for the compound 6α-formamido-6β-[D-2-[(4-ethyl-2, 3-dioxopiperazin-1-yl)carbonylamino]-2- phenyl acetamido]-penicillanic acid, sodium salt (Compound A) disclosed in U.K. Patent GB-2107307B, are also given.

P.aeruginosa K79961 = settings: Pseudomonas aeruginosa, 10⁴ colony-forming units, overnight at 37°C, lowest concentration to inhibit growth
Experimental: as §1

S agalactiae 2798 = settings: 10⁴ colony-forming units, overnight at 37°C, lowest concentration to inhibit growth
Experimental: as §1

E.Coli DC RTEM = settings: Escherichia coli
Experimental: as §1

E.Coli JT 425 = settings: Escherichia coli, JT425, 10⁴ colony-forming units, overnight at 37°C, lowest concentration to inhibit growth
Experimental: as §1

K.pneumoniae T767 = settings: Klebsiella pneumoniae, 10⁴ colony-forming units, overnight at 37°C, lowest concentration to inhibit growth
Experimental: as §1

CCN1CCN(C(=O)N[C@@H](C(=O)N[C@]2(NC=O)C(=O)N3[C@@H](C(=O)O)C(C)(C)S[C@@H]32)c2ccccc2)C(=O)C1=O [Compound A, 6α-formamido-6β-[D-2-[(4-ethyl-2,3-dioxopiperazin-1-yl)carbonylamino]-2-phenylacetamido]-penicillanic acid, sodium salt, reference compound]
MIC (P.aerginosa 10662): 1 µg/mL | MIC (P.aeruginosa K79961): 0.12 µg/mL | MIC (S agalactiae 2798): 64 µg/mL | MIC (E.Coli DC RTEM): 0.12 µg/mL | MIC (E.Coli JT 425): 0.25 µg/mL | MIC (K.pneumoniae T767): 0.12 µg/mL

CC1(C)S[C@@H]2[C@H](NC(=O)[C@H](NC(=O)N3CCN(Cc4ccc(O)c(O)c4)C(=O)C3=O)c3ccccc3)C(=O)N2[C@H]1C(=O)O [Example 1, Sodium 6β-[D-2[[4-(3,4-Dihydroxybenzyl)-2,3-dioxopiperazin-1-yl]carbonylamino]-2-phenylacetamido]penicillanate]
MIC (P.aerginosa 10662): 0.12 µg/mL | MIC (P.aeruginosa K79961): < 0.06 µg/mL | MIC (S agalactiae 2798): 0.25 µg/mL | MIC (E.Coli DC RTEM): 4 µg/mL | MIC (E.Coli JT 425): 1 µg/mL | MIC (K.pneumoniae T767): 0.5 µg/mL

CC1(C)S[C@H]2N(C(=O)[C@@]2(NC=O)NC(=O)[C@H](NC(=O)N2CCN(Cc3ccc(O)c(O)c3)C(=O)C2=O)c2ccccc2)[C@H]1C(=O)O [Example 2, Sodium 6β-[D-2[[4-(3,4-Dihydroxybenzyl)-2,3-dioxopiperazin-1-yl]carbonylamino]-2-phenylacetamido]-6α-formamidopenicillanate]
MIC (P.aerginosa 10662): 0.12 µg/mL | MIC (P.aeruginosa K79961): 0.12 µg/mL | MIC (S agalactiae 2798): 16 µg/mL | MIC (E.Coli DC RTEM): < 0.03 µg/mL | MIC (E.Coli JT 425): < 0.03 µg/mL | MIC (K.pneumoniae T767): < 0.03 µg/mL

CO[C@@]1(NC(=O)[C@H](NC(=O)N2CCN(Cc3ccc(O)c(O)c3)C(=O)C2=O)c2ccccc2)C(=O)N2[C@@H](C(=O)O)C(C)(C)S[C@@H]21 [Example 3, Sodium 6β-[D-2-[[4-(3,4-Dihydroxybenzyl)-2,3-dioxopiperazin-1-yl]carbonylamino]-2-phenylacetamido]-6α-methoxypenicillanate]
MIC (P.aerginosa 10662): 4 µg/mL | MIC (P.aeruginosa K79961): 1 µg/mL | MIC (S agalactiae 2798): > 128 µg/mL | MIC (E.Coli DC RTEM): 2 µg/mL | MIC (E.Coli JT 425): 16 µg/mL | MIC (K.pneumoniae T767): 0.25 µg/mL

CC1(C)S[C@H]2N(C(=O)[C@@]2(NC=O)NC(=O)[C@H](NC(=O)N2CCN(Cc3cc(O)c(O)cn3)C(=O)C2=O)c2ccccc2)[C@H]1C(=O)O [Example 6, Sodium 6β-[D-2-[[4-(4,5-Dihydroxypyridin-2-ylmethyl)-2,3-dioxopiperazin-1-yl]carbonylamino]-2-phenylacetamido]-6α-formamidopenicillanate]
MIC (P.aerginosa 10662): 1 µg/mL | MIC (P.aeruginosa K79961): 0.3 µg/mL | MIC (S agalactiae 2798): > 32 µg/mL | MIC (E.Coli DC RTEM): 0.06 µg/mL | MIC (E.Coli JT 425): 0.25 µg/mL | MIC (K.pneumoniae T767): 0.06 µg/mL

CCN1CCN(C(=O)N[C@@H](C(=O)N[C@@H]2C(=O)N3[C@@H]2SC(C)(C)[C@@H]3C(=O)O)c2ccccc2)C(=O)C1=O [Piperacillin, 6β-[D-2-[(4-ethyl-2,3-dioxopiperazin-1-yl)carbonylamino]-2-phenylacetamido] -penicillanic acid, sodium salt, reference compound]
MIC (P.aerginosa 10662): 8 µg/mL | MIC (P.aeruginosa K79961): 0.25 µg/mL | MIC (S agalactiae 2798): 0.5 µg/mL | MIC (E.Coli DC RTEM): > 128 µg/mL | MIC (E.Coli JT 425): 32 µg/mL | MIC (K.pneumoniae T767): 8 µg/mL
